In ChEMBL document CHEMBL4627373, “Antitubercular Ilamycins from Marine-Derived Streptomyces atratus SCSIO ZH16 ΔilaR” (J Nat Prod, 2020):
*1 amine or outer side, *2 acyl side, *3 side chain or, on linkers, in order; H or OH if unused. Where a SMILES comes first, the peptide text is derived from it. [ ]: non-standard residue; d: D form. Trp(1-(1,1-Me2-allyl)) = C=CC(C)(C)n1cc(C[C@H](N)C(=O)O)c2ccccc21; X6 = C=C[C@](C)(CO)n1cc(C[C@H](N[*:1])C(=O)[*:2])c2ccccc21; Tyr(3-NO2) = N[C@@H](Cc1ccc(O)c([N+](=O)[O-])c1)C(=O)O; X7 = CN([C@@H](C[C@@](C)(O)C(=O)O)C(=O)[*:2])[*:1]; X2 = CN([C@@H](C[C@H](CO)C(=O)O)C(=O)[*:2])[*:1]; X4 = C[C@H](C[C@@H](C(=O)[*:2])N(C)[*:1])C(=O)O; X1 = CN([C@@H](C[C@@](C)(O)CO)C(=O)[*:2])[*:1]; X5 = O=CNc1cc(C[C@H](N[*:1])C(=O)[*:2])ccc1O; X3 = CN([C@@H](CC(CO)CO)C(=O)[*:2])[*:1]; Gly(E-crotyl) = C/C=C/C[C@H](N)C(=O)O; NMeMet(O) = CN[C@@H](CCS(C)=O)C(=O)O; NMeL = CN[C@@H](CC(C)C)C(=O)O

Key:
A549 = assay: Cytotoxicity against human A549 cells assessed as reduction in cell viability after 24 hrs by CCK8 assay; assay type: functional, cell-based; settings: A549, 24 h
RKO = assay: Cytotoxicity against human RKO cells assessed as reduction in cell viability after 24 hrs by CCK8 assay; assay type: functional, cell-based
HepG2 = assay: Cytotoxicity against human HepG2 cells assessed as reduction in cell viability after 24 hrs by CCK8 assay; assay type: functional, cell-based; settings: HepG2, 24 h
[1] = Cytotoxicity against human HUVEC12 cells assessed as reduction in cell viability after 24 hrs by CCK8 assay; assay type: cell-based
MCF7 = assay: Cytotoxicity against human MCF7 cells assessed as reduction in cell viability after 24 hrs by CCK8 assay; assay type: functional, cell-based; settings: MCF7, 24 h
HeLa = assay: Cytotoxicity against human HeLa cells assessed as reduction in cell viability after 24 hrs by CCK8 assay; assay type: functional, cell-based
L02 = assay: Cytotoxicity against human LO2 cells assessed as reduction in cell viability after 24 hrs by CCK8 assay; assay type: cell-based; settings: L02, 24 h
[2] = test system: Mycobacterium tuberculosis; assay: Antitubercular activity against Mycobacterium tuberculosis H37Rv assessed as reduction in microbial growth by broth dilution method; assay type: functional

SMILES | IC50 (A549) | IC50 (RKO) | IC50 (HepG2) | IC50 [1] | IC50 (MCF7) | IC50 (HeLa) | IC50 (L02) | MIC [2]
C=CC(C)(C)n1cc(C[C@@H]2NC(=O)[C@H](C/C=C/C)NC(=O)[C@H](CC(C)C)N3C(=O)[C@H](C[C@H](C)[C@H]3O)N(C)C(=O)[C@H](C)NC(=O)[C@H](Cc3ccc(O)c([N+](=O)[O-])c3)NC(=O)[C@H](CC(C)C)N(C)C2=O)c2ccccc21 | 4.3 µM | 7.5 µM | 3.7 µM | 15 µM | 3.1 µM | 3.1 µM | 10 µM | 0.0098 µM
C=C[C@](C)(CO)n1cc(C[C@@H]2NC(=O)[C@H](C/C=C/C)NC(=O)[C@H](CC(C)C)N3C(=O)[C@H](C[C@@](C)(O)[C@H]3O)N(C)C(=O)[C@H](C)NC(=O)[C@H](Cc3ccc(O)c([N+](=O)[O-])c3)NC(=O)[C@H](CC(C)C)N(C)C2=O)c2ccccc21 | > 50 µM | 22 µM | > 50 µM | > 50 µM | 27 µM | 14 µM | 22 µM | 1.4 µM
C=CC(C)(C)n1cc(C[C@@H]2NC(=O)[C@H](C/C=C/C)NC(=O)[C@H](CC(C)C)N3C(=O)[C@H](C[C@H](C)[C@H]3OC)N(C)C(=O)[C@H](C)NC(=O)[C@H](Cc3cccc([N+](=O)[O-])c3)NC(=O)[C@H](CC(C)C)N(C)C2=O)c2ccccc21 |  |  |  |  |  |  |  | 1.2 µM
C=C[C@](C)(CO)n1cc(C[C@@H]2NC(=O)[C@H](C/C=C/C)NC(=O)[C@H](CC(C)C)N3C(=O)[C@H](C[C@H](C)[C@H]3O)N(C)C(=O)[C@H](C)NC(=O)[C@H](Cc3ccc(O)c([N+](=O)[O-])c3)NC(=O)[C@H](CC(C)C)N(C)C2=O)c2ccccc21 | 34 µM | 19 µM | > 50 µM | 47 µM | 33 µM | 28 µM | 31 µM | 0.0096 µM
C=CC(C)(C)n1cc(C[C@@H]2NC(=O)[C@H](C/C=C/C)NC(=O)[C@H](CC(C)C)N3C(=O)[C@H](C[C@@H](CO)[C@H]3O)N(C)C(=O)[C@H](C)NC(=O)[C@H](Cc3ccc(O)c([N+](=O)[O-])c3)NC(=O)[C@H](CC(C)C)N(C)C2=O)c2ccccc21 | 19 µM | 7.3 µM | 22 µM | 12 µM | 5.6 µM | 7.2 µM | 16 µM | 1.4 µM
C=CC(C)(C)n1cc(C[C@@H]2NC(=O)[C@H](C/C=C/C)NC(=O)[C@H](CC(C)C)NC(=O)[C@H](CC[S+](C)[O-])N(C)C(=O)[C@H](C)NC(=O)[C@H](Cc3ccc(O)c([N+](=O)[O-])c3)NC(=O)[C@H](CC(C)C)N(C)C2=O)c2ccccc21 (some centres not stated) (cyclo(A[NMeMet(O)]L[Gly(E-crotyl)][Trp(1-(1,1-Me2-allyl))][NMeL][Tyr(3-NO2)])) | 25 µM | 37 µM | 29 µM | 28 µM | 22 µM | 14 µM | > 50 µM | 1.4 µM
C=CC(C)(C)n1cc(C[C@@H]2NC(=O)[C@H](C/C=C/C)NC(=O)[C@H](CC(C)C)NC(=O)[C@H](C[C@@](C)(O)CO)N(C)C(=O)[C@H](C)NC(=O)[C@H](Cc3ccc(O)c([N+](=O)[O-])c3)NC(=O)[C@H](CC(C)C)N(C)C2=O)c2ccccc21 (cyclo(A[X1]L[Gly(E-crotyl)][Trp(1-(1,1-Me2-allyl))][NMeL][Tyr(3-NO2)])) | > 50 µM | > 50 µM | > 50 µM | > 50 µM | > 50 µM | 49 µM | > 50 µM | 2.3 µM
C=CC(C)(C)n1cc(C[C@@H]2NC(=O)[C@H](C/C=C/C)NC(=O)[C@H](CC(C)C)NC(=O)[C@H](C[C@H](CO)C(=O)O)N(C)C(=O)[C@H](C)NC(=O)[C@H](Cc3ccc(O)c([N+](=O)[O-])c3)NC(=O)[C@H](CC(C)C)N(C)C2=O)c2ccccc21 (cyclo(A[X2]L[Gly(E-crotyl)][Trp(1-(1,1-Me2-allyl))][NMeL][Tyr(3-NO2)])) | > 50 µM | > 50 µM | > 50 µM | > 50 µM | > 50 µM | > 50 µM | > 50 µM | 9.5 µM
C=CC(C)(C)n1cc(C[C@@H]2NC(=O)[C@H](C/C=C/C)NC(=O)[C@H](CC(C)C)NC(=O)[C@H](CC(CO)CO)N(C)C(=O)[C@H](C)NC(=O)[C@H](Cc3ccc(O)c([N+](=O)[O-])c3)NC(=O)[C@H](CC(C)C)N(C)C2=O)c2ccccc21 (cyclo(A[X3]L[Gly(E-crotyl)][Trp(1-(1,1-Me2-allyl))][NMeL][Tyr(3-NO2)])) | > 50 µM | 41 µM | > 50 µM | > 50 µM | 38 µM | 17 µM | > 50 µM | 1.2 µM
C=CC(C)(C)n1cc(C[C@@H]2NC(=O)[C@H](C/C=C/C)NC(=O)[C@H](CC(C)C)NC(=O)[C@H](C[C@@H](C)C(=O)O)N(C)C(=O)[C@H](C)NC(=O)[C@H](Cc3ccc(O)cc3)NC(=O)[C@H](CC(C)C)N(C)C2=O)c2ccccc21 (cyclo(A[X4]L[Gly(E-crotyl)][Trp(1-(1,1-Me2-allyl))][NMeL]Y)) | > 50 µM | > 50 µM | > 50 µM | > 50 µM | > 50 µM | > 50 µM | > 50 µM | 10 µM
C=CC(C)(C)n1cc(C[C@@H]2NC(=O)[C@H](C/C=C/C)NC(=O)[C@H](CC(C)C)NC(=O)[C@H](C[C@@H](C)C(=O)O)N(C)C(=O)[C@H](C)NC(=O)[C@H](Cc3ccc(O)c([N+](=O)[O-])c3)NC(=O)[C@H](CC(C)C)N(C)C2=O)c2ccccc21 (cyclo(A[X4]L[Gly(E-crotyl)][Trp(1-(1,1-Me2-allyl))][NMeL][Tyr(3-NO2)])) | > 50 µM | > 50 µM | > 50 µM | > 50 µM | > 50 µM | > 50 µM | > 50 µM | 1.2 µM
C=CC(C)(C)n1cc(C[C@@H]2NC(=O)[C@H](C/C=C/C)NC(=O)[C@H](CC(C)C)NC(=O)[C@H](C[C@@H](C)C(=O)O)N(C)C(=O)[C@H](C)NC(=O)[C@H](Cc3ccc(O)c(NC=O)c3)NC(=O)[C@H](CC(C)C)N(C)C2=O)c2ccccc21 (cyclo(A[X4]L[Gly(E-crotyl)][Trp(1-(1,1-Me2-allyl))][NMeL][X5])) | > 50 µM | > 50 µM | > 50 µM | > 50 µM | > 50 µM | > 50 µM | > 50 µM | 9.6 µM
C=C[C@](C)(CO)n1cc(C[C@@H]2NC(=O)[C@H](C/C=C/C)NC(=O)[C@H](CC(C)C)NC(=O)[C@H](C[C@@H](C)C(=O)O)N(C)C(=O)[C@H](C)NC(=O)[C@H](Cc3ccc(O)c([N+](=O)[O-])c3)NC(=O)[C@H](CC(C)C)N(C)C2=O)c2ccccc21 (cyclo(A[X4]L[Gly(E-crotyl)][X6][NMeL][Tyr(3-NO2)])) | 30 µM | > 50 µM | > 50 µM | 48 µM | > 50 µM | 45 µM | 49 µM | 9.5 µM
C=C[C@](C)(CO)n1cc(C[C@@H]2NC(=O)[C@H](C/C=C/C)NC(=O)[C@H](CC(C)C)NC(=O)[C@H](C[C@@](C)(O)C(=O)O)N(C)C(=O)[C@H](C)NC(=O)[C@H](Cc3ccc(O)c([N+](=O)[O-])c3)NC(=O)[C@H](CC(C)C)N(C)C2=O)c2ccccc21 (cyclo(A[X7]L[Gly(E-crotyl)][X6][NMeL][Tyr(3-NO2)])) | > 50 µM | > 50 µM | > 50 µM | > 50 µM | > 50 µM | > 50 µM | > 50 µM | 0.24 µM
COc1cccc2c1C(=O)c1c(O)c3c(c(O)c1C2=O)C[C@@](O)(C(=O)CO)C[C@@H]3O[C@H]1C[C@H](N)[C@H](O)[C@H](C)O1 [DOXORUBICIN] | 0.7 µM | 0.3 µM | 0.8 µM | 4 µM | 0.4 µM | 0.5 µM |  | 
CO[C@H]1/C=C/O[C@@]2(C)Oc3c(C)c(O)c4c(O)c(c(/C=N/N5CCN(C)CC5)c(O)c4c3C2=O)NC(=O)/C(C)=C\C=C\[C@H](C)[C@H](O)[C@@H](C)[C@@H](O)[C@@H](C)[C@H](OC(C)=O)[C@@H]1C [RIFAMPIN] |  |  |  |  |  |  |  | 0.3 µM
